Patent publication US5393768A, “Leukotriene antagonists” (Eli Lilly and Company, priority 1993, dated 1995)

Tests used:
[1] = target: T1, LTD4 evoked contractions of guinea pig ileum (Cavia porcellus, UniProt Q2NNR5); test: LTD4 antagonism, cumulative concentration-response curves (Schild pA2); assay type: cell-based; conditions: 30 minute incubation, negative log of KB
T1 construct: A section of terminal ileum was removed, the lumen cleaned, and the tissue divided into 2.5 cm. segments; from tissue; host or cells: terminal ileum of male Hartley guinea pigs
T1 sequence (Q2NNR5 1-340): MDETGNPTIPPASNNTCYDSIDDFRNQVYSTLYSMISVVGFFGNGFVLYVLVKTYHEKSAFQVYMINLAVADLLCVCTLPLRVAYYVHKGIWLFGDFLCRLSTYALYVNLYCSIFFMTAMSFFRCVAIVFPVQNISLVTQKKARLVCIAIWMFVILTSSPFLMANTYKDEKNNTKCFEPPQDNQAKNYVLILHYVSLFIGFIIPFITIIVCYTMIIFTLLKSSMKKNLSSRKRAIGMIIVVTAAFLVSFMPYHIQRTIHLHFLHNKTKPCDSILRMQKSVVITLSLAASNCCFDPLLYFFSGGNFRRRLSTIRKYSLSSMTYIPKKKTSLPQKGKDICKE
Protocol: For some of the drugs in this series a more detailed analysis of LTD4 antagonism was made. In these experiments, cumulative concentration-response curves were obtained to LTD4 in guinea pig ileum and trachea. This was followed by a 30 minute incubation with various concentrations of the experimental drug. The concentration response curve to LTD4 was then repeated in the presence of the antagonist. Only one concentration of antagonist was used on a single tissue. KB values were calculated by the method of Furchgott [Ann. N.Y. Acad. Sci., 139, 553 (1967)] using the following equation. [formula]
Dose ratio refers to the concentration of agonist required to elicit 50 percent of the maximal response (ED50) in the presence of the antagonist divided by the ED50 in the absence of the antagonist. Calculations were performed with the aid of a computer and a digital plotter.

[2] = tested on: LTD4 evoked contractions of guinea pig ileum; test: Percent inhibition of LTD4 evoked ileal contractions (single submaximal LTD4 response, 5 minute drug exposure); assay type: cell-based, guinea pig (male, Hartley); conditions: Cavia porcellus; for inhibition at 1 µM: Compound concentration 1 × 10^-6 M; for inhibition at 0.1 µM: Compound concentration 1 × 10^-7 M; for inhibition at 0.3 µM: Compound concentration 3 × 10^-7 M; for inhibition at 3 µM: Compound concentration 3 × 10^-6 M; for inhibition at 0.03 µM: Compound concentration 3 × 10^-8 M; for inhibition at 0.01 µM: 5 min, Compound concentration 1 × 10^-8
Protocol: Male, Hartley guinea pigs weighing 200-450 grams were killed by decapitation. A section of terminal ileum was removed, the lumen cleaned, and the tissue divided into 2.5 cm. segments. The ilea were mounted in 10 ml. tissue baths containing Krebs-bicarbonate solution of the following composition in mmoles/-liter: KCl, 4.6; CaCl2 ·2H2 O, 1.2; KH2 PO4, 1.2; MgSO4 ·7H2 O, 1.2; NaCl, 118.2; NaHCO3, 24.8; and dextrose, 10.0. The bath fluid was maintained at 37° C. and aerated with 95 percent oxygen and 5 percent CO2. In addition, the buffer contained 1×10^-6 M atropine to reduce ileal spontaneous activity. Isometric measurements were made with a Grass FTO3C force-displacement transducer and recorded on a Grass polygraph as change in grams of force. A passive force of 0.5 g. was applied to the tissues. After an appropriate equilibration period, single submaximal control responses to pure LTD4 were obtained. Following a five minute exposure of the ileum to an experimental drug, the control concentration of LTD was added to the tissue bath. The response of the ileum to LTD4 in the presence of the drug was compared to the response in the absence of the drug.

Row | Structure (SMILES) | pA2 [1] | Kb [1] [µM] | inhibition at 1 µM [2] [%] | inhibition at 0.1 µM [2] [%] | inhibition at 0.3 µM [2] [%] | inhibition at 3 µM [2] [%] | inhibition at 0.03 µM [2] [%] | inhibition at 0.01 µM [2] [%]
1 | CCCc1c(COc2ccc3c(=O)cc(C(=O)O)oc3c2CCC)ccc(C(C)=O)c1O [Example 10, 7-(4-Acetyl-3-hydroxy-2-propylbenzyloxy)-4-oxo-8-propyl-4H-1-benzopyran-2-carboxylic acid] | 7.42 |  | 97 | 62 | 86 |  |  | 
2 | CCCc1c(COc2ccc(C(=O)O)cc2)ccc(C(C)=O)c1O [Example 11, 4-(4-Acetyl-3-hydroxy-2-propylbenzyloxy)benzoic acid] |  | 0.234 | 75 |  |  | 94 |  | 
3 | CCCc1c(COc2ccc(C(=O)O)c(O)c2)ccc(C(C)=O)c1O [Example 13, 4-(4-Acetyl-3-hydroxy-2-propylbenzyloxy)-2-hydroxybenzoic acid] |  | 0.0269 | 97 | 69 | 85 |  | 59 | 30
4 | CCCc1c(COc2cccc(C(=O)O)c2)ccc(C(C)=O)c1O [Example 14, 3-(4-Acetyl-3-hydroxy-2-propylbenzyloxy)benzoic acid] |  | 1.78 | 31 |  |  | 67 |  | 
5 | CCCc1c(COc2ccc(OCC(=O)O)cc2)ccc(C(C)=O)c1O [Example 16, 4-(4-Acetyl-3-hydroxy-2-propylbenzyloxy)phenoxyacetic acid] |  | 0.0871 | 88 | 54 | 88 |  |  | 
6 | CCCc1c(COc2ccc(Cc3nnn[nH]3)cc2)ccc(C(C)=O)c1O [Example 33, 5-[4-(4-Acetyl-3-hydroxy-2-propylbenzyloxy)benzyl]-tetrazole] |  | 0.00759 | 100 | 92 | 94 |  | 81 | 31
7 | CCCc1c(COc2ccc(-c3nnn[nH]3)c(O)c2)ccc(C(C)=O)c1O [Example 34, 5-[4-(4-Acetyl-3-hydroxy-2-propylbenzyloxy)-2-hydroxyphenyl]-tetrazole] |  | 0.00871 |  | 97 | 98 |  | 80 | 50
8 | CCCc1c(CSc2ccc(-c3nnn[nH]3)cc2)ccc(C(C)=O)c1O [Example 40, 5-[4-(4 -Acetyl-3-hydroxy-2-propylbenzylthio)phenyl]-tetrazole] |  | 0.02 |  | 79 |  |  | 58 | 
9 | CCCc1c(COc2ccc3cc(-c4nn[nH]n4)ccc3c2)ccc(C(C)=O)c1O [Example 41, 5-[2-(6-[4-Acetyl-3-hydroxy-2-propylbenzyloxy]naphthyl)]-tetrazole] |  | 0.0123 |  | 90 |  |  |  | 46
10 | CC(=O)c1ccc(COc2ccc(Cc3nnn[nH]3)cc2)c(CC(C)C)c1O [Example 42, 5-(4-[4-Acetyl-3-hydroxy-2-(2-methylpropyl)benzyloxy]benzyl)-tetrazole] |  | 0.02 |  | 86 | 88 |  | 60 | 34
11 | CCCc1c(CNc2ccc(Cc3nnn[nH]3)cc2)ccc(C(C)=O)c1O [Example 43, 5-[4-(4-Acetyl-3-hydroxy-2-propylbenzylamino)benzyl]tetrazole] |  | 0.0316 |  | 77 |  |  | 49 | 
12 | CCCc1c(C=Cc2ccc(-c3nn[nH]n3)cc2)ccc(C(C)=O)c1O [Example 45, 5-[4-(2-[4-Acetyl-3-hydroxy-2-propylphenyl]ethenyl)phenyl]-tetrazole] |  | 0.186 | 74 |  | 57 |  |  | 
13 | CCCc1c(CNc2ccc(C(=O)O)cc2)ccc(C(C)=O)c1O [Example 47, 4-(4-Acetyl-3-hydroxy-2-propylbenzylamino)benzoic acid] |  | 0.49 | 70 |  | 36 |  |  | 
14 | CCCc1c(COCCOc2ccc(-c3nnn[nH]3)cc2)ccc(C(C)=O)c1O [Example 52, 5-(4-[2-(4-Acetyl-3-hydroxy-2-propylbenzyloxy)ethoxy]phenyl)-tetrazole] |  | 0.049 |  | 67 | 83 |  | 39 | 

The next lines start with results.

Row | pA2 [1] | Kb [1] [µM] | Structure (SMILES) | inhibition at 1 µM [2] [%] | inhibition at 0.1 µM [2] [%] | inhibition at 0.3 µM [2] [%] | inhibition at 3 µM [2] [%] | inhibition at 0.03 µM [2] [%] | inhibition at 0.01 µM [2] [%]
15 |  | 0.0603 | CCCc1c(COc2ccc(CC(=O)O)cc2)ccc(C(C)=O)c1O [Example 12, 4-(4-Acetyl-3-hydroxy-2-propylbenzyloxy)phenylacetic acid] | 91 | 66 | 77 |  | 37 | 
16 |  | 0.0263 | CCCc1c(COc2ccc(CCC(=O)O)cc2)ccc(C(C)=O)c1O [Example 15, 3-[4-(4-Acetyl-3-hydroxy-2-propylbenzyloxy)phenyl]propionic acid] | 79 | 59 | 76 |  |  | 
17 |  | 4.47 | CCCc1c(COc2ccc(C(=O)O)cc2)ccc(C(=O)c2ccccc2)c1O [Example 17, 4-(4-Benzoyl-3-hydroxy-2-propylbenzyloxy)benzoic acid] | 5 |  |  | 35 |  | 
18 |  | 2.09 | CCCCC(=O)c1ccc(COc2ccc(CC(=O)O)cc2)c(CCC)c1O [Example 18, 4-(4-Pentanoyl-3-hydroxy-2-propylbenzyloxy)phenylacetic acid] | 21 |  |  | 65 |  | 
19 |  | 0.00776 | CCCc1c(COc2ccc(-c3nnn[nH]3)cc2)ccc(C(C)=O)c1O [Example 32, 5-[4-(4-Acetyl-3-hydroxy-2-propylbenzyloxy)phenyl]tetrazole] | 94 | 83 | 94 |  |  | 
20 |  | 0.00832 | CCCc1c(COc2ccc(CCc3nnn[nH]3)cc2)ccc(C(C)=O)c1O [Example 35, 5-[2-(4-[4-Acetyl-3-hydroxy-2-propylbenzyloxy]phenyl)ethyl]-tetrazole] |  | 84 | 90 |  | 63 | 
21 |  | 0.0126 | CCCc1c(COc2ccc(C(C)c3nnn[nH]3)cc2)ccc(C(C)=O)c1O (centres unmarked) [Example 36, 5-[1-(4-[4-Acetyl-3-hydroxy-2-propylbenzyloxy]phenyl)ethyl]-tetrazole] | 94 | 89 | 90 |  | 70 | 44
22 |  | 0.0174 | CCCc1c(COc2ccc(C(C)(C)c3nnn[nH]3)cc2)ccc(C(C)=O)c1O [Example 37, 5-[4-(4-Acetyl-3-hydroxy-2-propylbenzyloxy)-α,α-dimethylbenzyl]-tetrazole] |  | 81 | 90 |  | 56 | 
23 |  | 0.316 | CCCc1c(CSCc2ccc(-c3nnn[nH]3)cc2)ccc(C(C)=O)c1O [Example 38, 5-[4-(4-Acetyl-3-hydroxy-2-propylbenzylthiomethyl)phenyl]-tetrazole] |  | 29 | 51 |  |  | 
24 |  | 0.0912 | CC(=O)c1ccc(COc2ccc(-c3nnn[nH]3)cc2)c(C)c1O [Example 39, 5-[4-(4-Acetyl-3-hydroxy-2-methylbenzyloxy)phenyl]-tetrazole] | 90 |  | 70 |  |  | 
25 |  | 0.0126 | CCc1c(COc2ccc(Cc3nnn[nH]3)cc2)ccc(C(C)=O)c1O [Example 44, 5-[4-(4-Acetyl-3-hydroxy-2-ethylbenzyloxy)benzyl)-tetrazole] |  | 88 |  |  | 78 | 41
26 |  | 0.55 | CCCc1c(COCCCCc2nnn[nH]2)ccc(C(C)=O)c1O [Example 49, 5-[4-(4-Acetyl-3-hydroxy-2-propylbenzyloxy)butyl]-tetrazole] | 64 |  | 36 |  |  | 
